Reference: ChEMBL document CHEMBL1201862, “PubChem BioAssay data set” (2004)
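All cell lines were grown in 96-well plates and treated with compound for 48 hours. GI50 marks 50% less growth.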 The source made the active and inactive calls. Cut-off read from the data, not from the text of the source: active = GI50 up to about 1.1 µM and inactive = higher.

Key:
Test in all cases: growth of human tumour cells (NCI), 48 h
NCI/ADR-RES = test system: NCI/ADR-RES
MDA-N = test system: MDA-N
RPMI-8226 = test system: RPMI-8226
A549 = test system: A549
NCI-H522 = test system: NCI-H522
SF-295 = test system: SF-295
SNB-19 = test system: SNB-19
SK-OV-3 = test system: SK-OV-3
CCRF-CEM = test system: CCRF-CEM
SNB-75 = test system: SNB-75
OVCAR-8 = test system: OVCAR-8
SK-MEL-2 = test system: SK-MEL-2
HCT-15 = test system: HCT-15
UO-31 = test system: UO-31
NCI-H226 = test system: NCI-H226
BT-549 = test system: BT-549
HOP-62 = test system: HOP-62
MDA-MB-231 = test system: MDA-MB-231
A498 = test system: A498
LOX IMVI = test system: LOX IMVI

Structure (SMILES) | GI50 (NCI/ADR-RES) | GI50 (MDA-N) | GI50 (RPMI-8226) | GI50 (A549) | GI50 (NCI-H522) | GI50 (SF-295) | GI50 (SNB-19) | GI50 (SK-OV-3) | GI50 (CCRF-CEM) | GI50 (SNB-75) | GI50 (OVCAR-8) | GI50 (SK-MEL-2) | GI50 (HCT-15) [µM] | GI50 (UO-31) | GI50 (NCI-H226) | GI50 (BT-549) | GI50 (HOP-62) | GI50 (MDA-MB-231) | GI50 (A498) | GI50 (LOX IMVI)
Cc1cccc2c1nc1n2C(=O)c2ccccc2-1 | > 100 µM (inactive) | > 100 µM (inactive) | > 100 µM (inactive) | > 100 µM (inactive) | > 100 µM (inactive) | > 100 µM (inactive) | > 100 µM (inactive) | > 100 µM (inactive) | > 100 µM (inactive) | > 100 µM (inactive) | > 100 µM (inactive) | > 100 µM (inactive) | > 100 | > 100 µM (inactive) | > 100 µM (inactive) | > 100 µM (inactive) | – | – | – | –
CC(C)(O)[C@@H]1CC[C@](C)(C2[C@@H](O)C[C@@]3(C)C4C[C@H](OC5OCC(O)C(O)C5O)[C@H]5C(C)(C)[C@@H](OC6OCC(O)C(O)C6OC6OCC(O)C(O)C6O)CC[C@@]56C[C@@]46CC[C@]23C)O1 (stereo partly specified) | > 100 µM (inactive) | – | > 100 µM (inactive) | > 100 µM (inactive) | > 100 µM (inactive) | > 100 µM (inactive) | > 100 µM (inactive) | > 100 µM (inactive) | > 100 µM (inactive) | > 100 µM (inactive) | > 100 µM (inactive) | > 100 µM (inactive) | > 100 | > 100 µM (inactive) | > 100 µM (inactive) | > 100 µM (inactive) | > 100 µM (inactive) | > 100 µM (inactive) | > 100 µM (inactive) | –
CCO/C=C(\C(=O)OC)S(=O)(=O)c1ccc(C)cc1 | > 100 µM (inactive) | > 100 µM (inactive) | > 100 µM (inactive) | > 100 µM (inactive) | > 100 µM (inactive) | > 100 µM (inactive) | > 100 µM (inactive) | > 100 µM (inactive) | > 100 µM (inactive) | > 100 µM (inactive) | > 100 µM (inactive) | > 100 µM (inactive) | > 100 | 61.7 µM (inactive) | > 100 µM (inactive) | – | > 100 µM (inactive) | > 100 µM (inactive) | – | > 100 µM (inactive)
Cc1ccc2nc(CN(CCO)CCO)cc(=O)n2c1 | > 100 µM (inactive) | > 100 µM (inactive) | – | > 100 µM (inactive) | > 100 µM (inactive) | > 100 µM (inactive) | > 100 µM (inactive) | > 100 µM (inactive) | > 100 µM (inactive) | > 100 µM (inactive) | > 100 µM (inactive) | > 100 µM (inactive) | > 100 | > 100 µM (inactive) | > 100 µM (inactive) | > 100 µM (inactive) | > 100 µM (inactive) | > 100 µM (inactive) | – | > 100 µM (inactive)
C=CC1(c2ccc(OC)cc2)OCCCO1 | > 100 µM (inactive) | > 100 µM (inactive) | > 100 µM (inactive) | > 100 µM (inactive) | > 100 µM (inactive) | > 100 µM (inactive) | > 100 µM (inactive) | > 100 µM (inactive) | > 100 µM (inactive) | > 100 µM (inactive) | > 100 µM (inactive) | > 100 µM (inactive) | > 100 | > 100 µM (inactive) | > 100 µM (inactive) | – | > 100 µM (inactive) | > 100 µM (inactive) | – | > 100 µM (inactive)
C=C[C@@H](OCOCC[Si](C)(C)C)[C@@H](CC)OC(CCCOC(=O)C(C)(C)C)OC (stereo partly specified) | 30.1 µM (inactive) | 45.1 µM (inactive) | 41.7 µM (inactive) | 31.5 µM (inactive) | – | 22 µM (inactive) | 16.3 µM (inactive) | > 100 µM (inactive) | 27.9 µM (inactive) | 31 µM (inactive) | 38.5 µM (inactive) | 21.4 µM (inactive) | 22.1 | 40 µM (inactive) | 21.9 µM (inactive) | – | 36.7 µM (inactive) | 66.1 µM (inactive) | 43.8 µM (inactive) | –
COc1cc(-c2nc(SC)nc3c2CCc2ccccc2-3)cc(OC)c1OC | 36.3 µM (inactive) | – | 25.8 µM (inactive) | > 100 µM (inactive) | – | 91 µM (inactive) | > 100 µM (inactive) | > 100 µM (inactive) | > 100 µM (inactive) | > 100 µM (inactive) | 50.6 µM (inactive) | > 100 µM (inactive) | – | 46.3 µM (inactive) | > 10 µM (inactive) | > 100 µM (inactive) | > 100 µM (inactive) | 28.3 µM (inactive) | > 100 µM (inactive) | 91.8 µM (inactive)
COc1cc(/C=C2\Sc3scc(-c4cccc([N+](=O)[O-])c4)[n+]3C2=O)cc(OC)c1OC | 17.4 µM (inactive) | 11.9 µM (inactive) | 4.06 µM (inactive) | 19.2 µM (inactive) | 4.67 µM (inactive) | 16.3 µM (inactive) | 16.7 µM (inactive) | 23.6 µM (inactive) | 44.9 µM (inactive) | 1.47 µM (inactive) | 15.5 µM (inactive) | 17 µM (inactive) | – | 6.37 µM (inactive) | 5.2 µM (inactive) | – | 16.6 µM (inactive) | 7.29 µM (inactive) | 47 µM (inactive) | 10.7 µM (inactive)
COC12C=CC(CC1)C1C(=O)c3c(C)c(C)n(C)c3C(=O)C12 (stereo unspecified) | > 100 µM (inactive) | – | 85.1 µM (inactive) | – | – | > 100 µM (inactive) | > 100 µM (inactive) | > 100 µM (inactive) | > 100 µM (inactive) | 67.6 µM (inactive) | > 100 µM (inactive) | > 100 µM (inactive) | 15.4 | 36.1 µM (inactive) | 25.9 µM (inactive) | > 100 µM (inactive) | > 100 µM (inactive) | – | > 100 µM (inactive) | > 100 µM (inactive)
Cc1nc(N)c(-c2ccccc2)s1 | – | – | > 49.1 µM (inactive) | 68.9 µM (inactive) | 42.7 µM (inactive) | 32.7 µM (inactive) | 80.7 µM (inactive) | 38.3 µM (inactive) | 36.5 µM (inactive) | 86.7 µM (inactive) | > 76.7 µM (inactive) | 32.3 µM (inactive) | 33.8 | > 100 µM (inactive) | > 100 µM (inactive) | – | > 100 µM (inactive) | – | > 32.4 µM (inactive) | 52.4 µM (inactive)
COc1ccc(/N=C2\C(=N/c3ccc(OC)cc3)N(S(=O)(=O)c3ccccc3)C(=S)N2c2ccccc2)cc1 | > 100 µM (inactive) | > 100 µM (inactive) | > 100 µM (inactive) | > 100 µM (inactive) | 86.3 µM (inactive) | > 100 µM (inactive) | > 100 µM (inactive) | > 100 µM (inactive) | – | > 100 µM (inactive) | > 100 µM (inactive) | > 100 µM (inactive) | > 100 | > 100 µM (inactive) | > 100 µM (inactive) | > 100 µM (inactive) | > 100 µM (inactive) | > 100 µM (inactive) | – | –
N#Cc1cc([N+](=O)[O-])ccc1NC(=O)C(=O)C(C(=O)c1ccc2ccccc2c1)C1OCc2ccccc21 (stereo unspecified) | – | – | 5.2 µM (inactive) | 10.7 µM (inactive) | 7.29 µM (inactive) | 3.15 µM (inactive) | 6.9 µM (inactive) | 24.8 µM (inactive) | 3.92 µM (inactive) | 4.23 µM (inactive) | 5.43 µM (inactive) | 10.9 µM (inactive) | 7.8 | 12.8 µM (inactive) | 1.68 µM (inactive) | – | 6.65 µM (inactive) | – | 5.56 µM (inactive) | 7.19 µM (inactive)
COC(=O)C1(C(=O)OC)N=C(C)OC1c1ccoc1 (stereo unspecified) | > 100 µM (inactive) | > 100 µM (inactive) | > 100 µM (inactive) | > 100 µM (inactive) | – | > 100 µM (inactive) | > 100 µM (inactive) | > 100 µM (inactive) | > 100 µM (inactive) | > 100 µM (inactive) | > 100 µM (inactive) | > 100 µM (inactive) | > 100 | > 100 µM (inactive) | > 100 µM (inactive) | > 100 µM (inactive) | > 100 µM (inactive) | – | > 100 µM (inactive) | > 100 µM (inactive)
CCC/C(=N\NC(=S)N1CC2CCC(CC2)C1)c1ccccn1 | – | 0.685 µM (active) | 0.00822 µM (active) | 0.414 µM (active) | 0.282 µM (active) | 0.399 µM (active) | 0.571 µM (active) | 0.927 µM (active) | 0.0186 µM (active) | 0.185 µM (active) | 0.0877 µM (active) | 0.0813 µM (active) | 0.0853 | 1.1 µM (active) | 1.82 µM (inactive) | 0.3 µM (active) | 0.713 µM (active) | 1.01 µM (active) | 0.708 µM (active) | 0.542 µM (active)
COC(=O)[C@](NC(=O)OCc1ccccc1)([C@@H](C)Sc1ccc(C)cc1)C(F)(F)F | 36 µM (inactive) | 63.5 µM (inactive) | 29.2 µM (inactive) | 34.6 µM (inactive) | 25.1 µM (inactive) | 61.1 µM (inactive) | > 100 µM (inactive) | > 100 µM (inactive) | 13.6 µM (inactive) | – | 19.5 µM (inactive) | > 100 µM (inactive) | 27.5 | 51.9 µM (inactive) | – | 34.9 µM (inactive) | > 100 µM (inactive) | – | > 100 µM (inactive) | 39 µM (inactive)
ClCCN(CC#CCCCC#CCN(CCCl)CCCl)CCCl | 14.5 µM (inactive) | – | 2.79 µM (inactive) | 8.99 µM (inactive) | 8.3 µM (inactive) | 11.6 µM (inactive) | 13.6 µM (inactive) | 9.31 µM (inactive) | 2.3 µM (inactive) | 10.3 µM (inactive) | 11 µM (inactive) | 13 µM (inactive) | 12.4 | 25.8 µM (inactive) | 12.9 µM (inactive) | – | 11.3 µM (inactive) | – | 12.3 µM (inactive) | 5.86 µM (inactive)
